Converted amounts (≈) assume the structure as drawn. Some results are limits rather than exact numbers.

In general, EC50 refers to the concentration at which the effect is half-maximal. By IC50 is commonly meant the concentration at which inhibition is half-maximal. The solubility is the concentration that dissolves in the medium under given conditions.

The test system of one series is HUVEC. The series is described as follows: Protection against H2O2-induced oxidative stress in HUVEC cells. The format is functional, cell-based. The conditions noted are these: Homo sapiens.
Series [1] deals with T1, Acetylcholinesterase (Homo sapiens, UniProt P22303). Kind of series: Inhibition of AChE (unknown origin).
In a further series the test system is HCT-116. The series is described as follows: Antiproliferative activity against human HCT-116 cells assessed as reduction in cell viability incubated for 72 hrs by MTT assay. In kind it is functional, cell-based. The following applies: HCT-116, 72 h. On the technique in general: Formazan colour is commonly taken as a measure of viable cells.
In a further series the test system is MCF7. Kind of series: Antiproliferative activity against human MCF7 cells assessed as reduction in cell viability incubated for 72 hrs by MTT assay. In kind it is functional, cell-based. The following applies: MCF7, 72 h.
Another series concerns MDA-MB-231. Kind of series: Antiproliferative activity against human MDA-MB-231 cells assessed as reduction in cell viability incubated for 72 hrs by MTT assay. The format is functional, cell-based. The following applies: MDA-MB-231, 72 h.
A short description of series [2]: Inhibition of accumulation of sorbitol in human Red blood cells. The conditions noted are these: erythrocyte. In kind it is functional, cell-based.
Series [3] addresses Aldo-keto reductase family 1 member B1 (Rattus norvegicus, UniProt P07943). Kind of series: Inhibition of rat lens aldose reductase.
Another series deals with HepG2. The series is described as follows: Cytotoxicity against human HepG2 cells assessed as inhibition of cell growth at 10 uM incubated for 72 hrs by MTT assay relative to control. In kind it is functional. Further details: scale not given: the % may be the effect or the level left.
For the next series, the system named is MDCK. The series is described as follows: Cytotoxicity against dog MDCK cells assessed as inhibition of cell growth at 10 uM relative to control. The format is functional, Canis lupus familiaris. Further details: scale not given: the % may be the effect or the level left.
The nature of series [4]: Solubility in water. In kind it is physicochemical.
The nature of series [5]: Inhibition of Lipoxygenase (unknown origin). Further details: species or system Homo sapiens.
Series [6] can be described thus: Cytoprotective activity against H2O2-induced oxidative stress in human HBMEC-2 cells assessed as increase in cell viability incubated for 24 hrs by MTT assay. In kind it is functional, cell-based. The following applies: HBMEC-2, 24 h.
The test system of series [7] is SH-SY5Y. Kind of series: Cytoprotective activity against OGD/R induced human SH-SY5Y cells assessed as assessed as cell survival rate at 10 uM measured after 8 hrs by MTT assay relative to control. In kind it is functional.
The target of series [8] is T2, Prostaglandin G/H synthase 1 (Ovis aries, UniProt P05979).
T2 sequence (P05979 whole entry): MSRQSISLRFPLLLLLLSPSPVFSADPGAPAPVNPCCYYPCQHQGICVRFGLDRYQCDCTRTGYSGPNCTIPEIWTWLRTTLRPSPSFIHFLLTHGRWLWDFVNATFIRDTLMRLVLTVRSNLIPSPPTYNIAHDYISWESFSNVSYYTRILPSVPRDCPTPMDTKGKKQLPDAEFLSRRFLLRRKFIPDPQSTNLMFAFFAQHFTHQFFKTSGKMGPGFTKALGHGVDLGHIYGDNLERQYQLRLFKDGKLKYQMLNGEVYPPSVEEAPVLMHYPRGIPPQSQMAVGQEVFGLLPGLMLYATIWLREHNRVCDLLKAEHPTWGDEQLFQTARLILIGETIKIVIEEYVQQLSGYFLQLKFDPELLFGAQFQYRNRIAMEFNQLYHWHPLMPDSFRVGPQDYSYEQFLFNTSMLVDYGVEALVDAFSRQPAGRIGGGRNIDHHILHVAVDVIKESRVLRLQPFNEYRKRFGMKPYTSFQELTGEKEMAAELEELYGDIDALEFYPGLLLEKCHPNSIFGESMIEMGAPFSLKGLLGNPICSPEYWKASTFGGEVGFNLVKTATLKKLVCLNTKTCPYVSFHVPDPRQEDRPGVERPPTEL
Kind of series: Inhibition of ovine COX-1 by EIA method.

Series [9] concerns the target T1, Acetylcholinesterase. The series is described as follows: Inhibition of AChE (unknown origin) by Ellman's method. On the technique in general: DTNB colorimetry detects thiols as they appear.
A further series has as its system A549. The series is described as follows: cells. The conditions noted are these: Homo sapiens.
Series [10] in a line: Solubility in water by HPLC analysis. The format is physicochemical.
Series [11] relates to SH-SY5Y. The series is described as follows: Cytoprotective activity against H2O2-induced oxidative stress in human SH-SY5Y cells assessed as increase in cell viability incubated for 24 hrs by MTT assay. The format is functional, cell-based.
Another series concerns PC-12. Kind of series: Cytoprotective activity against COCL2-induced cellular damage in rat PC12 cells assessed as reduction in cell viability incubated for 48 hrs by MTT assay. The following applies: PC-12, 48 h. The format is functional, cell-based.

T1 sequence (P22303 whole entry): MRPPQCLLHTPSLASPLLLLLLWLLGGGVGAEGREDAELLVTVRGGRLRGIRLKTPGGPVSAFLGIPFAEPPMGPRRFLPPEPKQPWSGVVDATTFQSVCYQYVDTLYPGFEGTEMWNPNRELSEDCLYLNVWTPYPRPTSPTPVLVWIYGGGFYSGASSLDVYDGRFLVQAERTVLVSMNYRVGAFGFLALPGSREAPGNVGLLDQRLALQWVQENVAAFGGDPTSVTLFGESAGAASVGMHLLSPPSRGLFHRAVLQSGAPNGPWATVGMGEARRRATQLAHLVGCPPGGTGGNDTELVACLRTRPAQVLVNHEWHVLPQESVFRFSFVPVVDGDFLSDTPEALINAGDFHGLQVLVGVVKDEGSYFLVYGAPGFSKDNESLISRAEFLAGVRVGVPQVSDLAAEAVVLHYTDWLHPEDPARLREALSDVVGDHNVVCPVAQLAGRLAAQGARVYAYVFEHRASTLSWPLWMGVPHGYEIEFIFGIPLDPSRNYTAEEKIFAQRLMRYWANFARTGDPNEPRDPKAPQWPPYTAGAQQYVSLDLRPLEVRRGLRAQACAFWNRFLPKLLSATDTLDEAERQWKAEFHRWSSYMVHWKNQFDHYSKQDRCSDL
Description for A549: Antiproliferative activity against human A549 cells assessed as reduction in cell viability by MTT assay

`Cc1nc(C)c(/C=C/c2nc(C)c(C)nc2C)nc1C` showed an EC50 with HUVEC of 25.6 µM.

With `COC(=O)C1=CO[C@H](OC)[C@H]2C(CN3CCN(Cc4nc(C)c(C)nc4C)CC3)=CC[C@@H]12`, the 50% inhibitory concentration (IC50) on Acetylcholinesterase [1] came to 0.218 µM.

Consider `Cc1nc(C)c(C(=O)N2CCN(C(=O)C3=Cc4c(Br)cccc4S3(=O)=O)CC2)nc1C`, for which the results for the 50% inhibitory concentration (IC50) with HCT-116, in the series on MCF7 and in the series on MDA-MB-231 were 6.44 µM, 3.29 µM and 4.86 µM, respectively.

Regarding `O=C(/C=C/c1ccc(O)cc1)c1ccc(O)cc1O` [ISOLIQUIRITIGENIN], the IC50 came out at 2 µM in [2] and 0.32 µM in series [3].

Turning to `C=C(C)[C@@H]1CC[C@]2(C(=O)OCc3nc(C)c(C)nc3C)CC[C@]3(C)[C@H](CC[C@@H]4[C@@]5(C)CC[C@H](O)C(C)(C)[C@@H]5CC[C@]43C)[C@@H]12`, the Activity is 99.87% with HepG2 and 26.5% with MDCK.

`C=CCC(CC=C)(OC(=O)[C@@H](Cc1ccc(OC(C)=O)c(OC(C)=O)c1)OC(=O)CN)c1nc(C)c(C)nc1C` displayed a solubility in [4] above 0.1 µg/mL.

For the molecule `Cc1nc(C)c(/C=C2\CN(C)C/C(=C\c3nc(C)c(C)nc3C)C2=O)nc1C`, the half-inhibitory concentration (IC50) in series [5] is 7.5 µM.

For `COc1cc(CNC(=O)c2ccc(O)c(O)c2)ccc1OCc1nc(C)c(C)nc1C`, in series [6], the EC50 was 4.15 µM.

Turning to `CCCCC(OC(=O)CN1CCN(C)CC1)c1ccc(I)cc1C(=O)OCc1nc(C)c(C)nc1C` (configuration not stated), the Activity in the series with SH-SY5Y [7] was determined as 90%.

Consider `Cc1nc(C)c(C(=O)NC2CCN(C(=O)C3=Cc4ccccc4S3(=O)=O)C2)nc1C` (configuration not stated), for which the half-inhibitory concentration (IC50) in the series with HCT-116, with MCF7 and in the series with MDA-MB-231 was above 10 µM throughout.

The molecule `COc1ccc(/C=C2\CN(C)C/C(=C\c3nc(C)c(C)nc3C)C2=O)c(Cl)c1` gave a half-maximal inhibitory concentration (IC50) in series [8] of 0.5 µM.

In turn, `COc1cc(/C=C/C(=O)c2ccc(OCCN3CCCC3)cc2)ccc1OCc1nc(C)c(C)nc1C` had a half-maximal inhibitory concentration (IC50) on Acetylcholinesterase [9] of 0.98 µM.

With `Cc1nc(C)c(C(=O)NC2CCN(C(=O)C3=Cc4ccccc4S3(=O)=O)CC2)nc1C`, the concentration for half-maximal inhibition (IC50) with HCT-116, with MCF7 and in the series with MDA-MB-231 was above 10 µM throughout.

In the series on A549, `COc1ccc(/C=C/C(=O)/C=C/c2nc(C)c(C)nc2C)cc1O` displayed a concentration for half-maximal inhibition (IC50) of 2.19 µM.

`O=c1c(-c2ccc(O)cc2)coc2cc(O)cc(O)c12` [GENISTEIN] returned a solubility in series [10] of 0.029 µg/mL (≈ 0.107 µM).

On to `CC(=O)Oc1ccc(C[C@@H](OC(C)=O)C(=O)OCc2nc(C)c(C)nc2C)cc1OC(C)=O`, for which the EC50 in the series on SH-SY5Y [11] is 2.56 µM.

On to `O=[N+]([O-])c1ccc2c(c1)S(=O)(=O)C=C2`, for which the IC50 worked out at 1.71 µM in the series on HCT-116, 2.08 µM with MCF7 and 3.9 µM in the series with MDA-MB-231.

For `COc1cc(C(=O)Nc2cccc(N(C)C)c2)ccc1OCc1nc(C)c(C)nc1C`, the EC50 in the series on PC-12 is 17.4 µM.

Consider `Cc1nc(C)c(COC(=O)/C=C/c2ccc(OCc3nc(C)c(C)nc3C)cc2)nc1C`, for which the EC50 in the series on PC-12 was determined as 3.68 µM.

Regarding `Cc1nc(C)c(CN2CCN(C(=O)C3=Cc4c(Cl)cccc4S3(=O)=O)CC2)nc1C`, the IC50 with HCT-116 was 2.67 µM; in the series on MCF7, 1.5 µM; in the series with MDA-MB-231 it was 2.2 µM.
